The source made the active and inactive calls. The calls are words filed in the database; no cut-off is given here.
Experiments:
A549 [1] = test: Cytotoxicity against human A549 cells; type: functional, cell-based
MDA-MB-231 = test: Cytotoxicity against human MDA-MB-231 cells; type: functional, cell-based
HepG2 = test: Cytotoxicity against human HepG2 cells; type: functional, cell-based
A549 [2] = test: Induction of apoptosis in human A549 cells assessed as apoptosis ratio at 4 uM incubated for 24 hrs by Annexin V-FITC/PI staining based flow cytometry (reference value: 4.38 %); type: functional
A549 [3] = test: Induction of apoptosis in human A549 cells assessed as apoptosis ratio at 1 uM incubated for 24 hrs by Annexin V-FITC/PI staining based flow cytometry (reference value: 4.38 %); type: functional
A549 [4] = test: Induction of mitochondrial membrane potential depolarization in human A549 cells at 1 uM by JC-1 staining based flow cytometry (reference value: 7.4 %); type: functional
A549 [5] = test: Induction of mitochondrial membrane potential depolarization in human A549 cells at 2 uM by JC-1 staining based flow cytometry (reference value: 7.4 %); type: functional
A549 [6] = test: Induction of mitochondrial membrane potential depolarization in human A549 cells at 4 uM by JC-1 staining based flow cytometry (reference value: 7.4 %); type: functional
A549 [7] = test: Induction of apoptosis in human A549 cells assessed as increase in Bax level by Western blot analysis; type: functional, cell-based; conditions: dose <= 4.0 µM
A549 [8] = test: Induction of apoptosis in human A549 cells assessed as apoptosis ratio at 2 uM incubated for 24 hrs by Annexin V-FITC/PI staining based flow cytometry (reference value: 4.38 %); type: functional
A549 [9] = test: Induction of cell cycle arrest in human A549 cells assessed as accumulation at G0/G1 phase at 1 to 4 uM incubated for 24 hrs by PI staining based flow cytometry; type: functional; conditions: dose 1-4 µM
A549 [10] = test: Induction of apoptosis in human A549 cells assessed as decrease in Bcl-2 level by Western blot analysis; type: functional, cell-based; conditions: dose <= 4.0 µM
A549 [11] = test: Induction of apoptosis in human A549 cells assessed as decrease in pro-caspase 3 level upto 4 microM by Western blot analysis; type: functional, cell-based
A549 [12] = test: Induction of intracellular ROS generation in human A549 cells incubated for 48 hrs by DCFH-DA staining based analysis; type: functional, cell-based; conditions: dose 1-4 µM

Compound | IC50 (A549 [1]) [µM] | IC50 (MDA-MB-231) [µM] | IC50 (HepG2) [µM] | further results
CC1CC[C@@]2(OC1)O[C@H]1C[C@H]3[C@@H]4CC=C5C[C@@H](OC(=O)CC[P+](c6ccccc6)(c6ccccc6)c6ccccc6)CC[C@]5(C)[C@H]4CC[C@]3(C)[C@H]1[C@@H]2C (some centres not stated) | 1.19 | 7.92 | 8.28 | 
CC(=O)O[C@H]1CC[C@@]2(C)C(=CC[C@H]3[C@@H]4C[C@@H]5O[C@H](CC[C@@H](C)COC(=O)CCC[P+](c6ccccc6)(c6ccccc6)c6ccccc6)[C@@H](C)[C@@H]5[C@@]4(C)CC[C@@H]32)C1 | 6.06 | 31.5 | 23.7 | 
CC(=O)O[C@H]1CC[C@@]2(C)C(=CC[C@H]3[C@@H]4C[C@@H]5O[C@H](CC[C@@H](C)COC(=O)CC[P+](c6ccccc6)(c6ccccc6)c6ccccc6)[C@@H](C)[C@@H]5[C@@]4(C)CC[C@@H]32)C1 | 5.99 | 38.5 | 26.2 | 
CC[N+]1(CCCC(=O)O[C@H]2CC[C@@]3(C)[C@H](CC[C@@H]4[C@@H]3CC[C@]3(C)[C@@H]5[C@H](C[C@@H]43)O[C@]3(CCC(C)CO3)[C@H]5C)C2)CCc2ccccc2C1 (some centres not stated) | 10.8 | 13.8 | 9.52 | 
CC1CC[C@@]2(OC1)O[C@H]1C[C@H]3[C@@H]4CC=C5C[C@@H](OC(=O)CCC[P+](c6ccccc6)(c6ccccc6)c6ccccc6)CC[C@]5(C)[C@H]4CC[C@]3(C)[C@H]1[C@@H]2C.[Br-] (some centres not stated) | 0.95 | 4.16 | 3.95 | Activity (A549 [2]): 48.2%; Activity (A549 [3]): 8.51%; Activity (A549 [4]): 17.4%; Activity (A549 [5]): 40.6%; Activity (A549 [6]): 91.2%; Activity (A549 [7]): Dose-dependent-effect; Activity (A549 [8]): 23.95%; Activity (A549 [9]): Active; Activity (A549 [10]): Dose-dependent-effect; Activity (A549 [11]): Active; Activity (A549 [12]): Dose-dependent-effect
CC[N+]1(CCCC(=O)OC[C@H](C)CC[C@H]2O[C@H]3C[C@H]4[C@@H]5CC=C6C[C@@H](OC(C)=O)CC[C@]6(C)[C@H]5CC[C@]4(C)[C@H]3[C@@H]2C)CCCCC1 | 18 | > 50 | > 50 | 
CC[N+]1(CCCC(=O)O[C@H]2CC[C@@]3(C)C(=CC[C@H]4[C@@H]5C[C@@H]6O[C@]7(CCC(C)CO7)[C@@H](C)[C@@H]6[C@@]5(C)CC[C@@H]43)C2)CCNCC1 (some centres not stated) | 18.6 | 49.2 | 33.7 | 
CC[N+]1(CCCC(=O)OC[C@H](C)CC[C@H]2O[C@H]3C[C@H]4[C@@H]5CC=C6C[C@@H](OC(C)=O)CC[C@]6(C)[C@H]5CC[C@]4(C)[C@H]3[C@@H]2C)CCCC1 | 20.7 | > 50 | > 50 | 
CC[N+]1(CCCC(=O)O[C@H]2CC[C@@]3(C)C(=CC[C@H]4[C@@H]5C[C@@H]6O[C@]7(CCC(C)CO7)[C@@H](C)[C@@H]6[C@@]5(C)CC[C@@H]43)C2)CCOCC1 (some centres not stated) | 29.1 | 41.6 | 27.9 | 
CC1CC[C@@]2(OC1)O[C@H]1C[C@H]3[C@@H]4CC[C@@H]5C[C@@H](OC(=O)CCCCC[P+](c6ccccc6)(c6ccccc6)c6ccccc6)CC[C@]5(C)[C@H]4CC[C@]3(C)[C@H]1[C@@H]2C (some centres not stated) | 1.3 | 5.01 | 4.18 | 
CC[N+]1(CCCC(=O)O[C@H]2CC[C@@]3(C)[C@H](CC[C@@H]4[C@@H]3CC[C@]3(C)[C@@H]5[C@H](C[C@@H]43)O[C@]3(CCC(C)CO3)[C@H]5C)C2)CCNCC1 (some centres not stated) | 26.1 | > 50 | > 50 | 
CC[N+]1(CCCC(=O)O[C@H]2CC[C@@]3(C)C(=CC[C@H]4[C@@H]5C[C@@H]6O[C@]7(CCC(C)CO7)[C@@H](C)[C@@H]6[C@@]5(C)CC[C@@H]43)C2)CCc2ccccc2C1 (some centres not stated) | 8.43 | 20.6 | 18.8 | 
C[C@@H]1CC[C@@]2(OC1)O[C@H]1C[C@H]3[C@@H]4CC[C@@H]5C[C@@H](O)CC[C@]5(C)[C@H]4CC[C@]3(C)[C@H]1[C@@H]2C | > 50 | > 50 | > 50 | 
CC(=O)O[C@H]1CC[C@@]2(C)C(=CC[C@H]3[C@@H]4C[C@@H]5O[C@H](CC[C@@H](C)COC(=O)CCCCC[P+](c6ccccc6)(c6ccccc6)c6ccccc6)[C@@H](C)[C@@H]5[C@@]4(C)CC[C@@H]32)C1 | 5.63 | 36.6 | 30.1 | 
CC1CC[C@@]2(OC1)O[C@H]1C[C@H]3[C@@H]4CC=C5C[C@@H](OC(=O)C[P+](c6ccccc6)(c6ccccc6)c6ccccc6)CC[C@]5(C)[C@H]4CC[C@]3(C)[C@H]1[C@@H]2C (some centres not stated) | 15.6 | 33.3 | 22.2 | 
CC[N+]1(CCCC(=O)O[C@H]2CC[C@@]3(C)[C@H](CC[C@@H]4[C@@H]3CC[C@]3(C)[C@@H]5[C@H](C[C@@H]43)O[C@]3(CCC(C)CO3)[C@H]5C)C2)CCOCC1 (some centres not stated) | 18.7 | 34.8 | 22.6 | 
CC(=O)O[C@H]1CC[C@@]2(C)C(=CC[C@H]3[C@@H]4C[C@@H]5O[C@H](CC[C@@H](C)COC(=O)C[P+](c6ccccc6)(c6ccccc6)c6ccccc6)[C@@H](C)[C@@H]5[C@@]4(C)CC[C@@H]32)C1 | 10.8 | 32 | 25.4 | 
CC[N+]1(CCCC(=O)O[C@H]2CC[C@@]3(C)C(=CC[C@H]4[C@@H]5C[C@@H]6O[C@]7(CCC(C)CO7)[C@@H](C)[C@@H]6[C@@]5(C)CC[C@@H]43)C2)CCCC1 (some centres not stated) | 16.2 | 26.4 | 16.8 | 
CC1CC[C@@]2(OC1)O[C@H]1C[C@H]3[C@@H]4CC[C@@H]5C[C@@H](OC(=O)CC[P+](c6ccccc6)(c6ccccc6)c6ccccc6)CC[C@]5(C)[C@H]4CC[C@]3(C)[C@H]1[C@@H]2C (some centres not stated) | 1.09 | 4.26 | 3.34 | 
CC1CC[C@@]2(OC1)O[C@H]1C[C@H]3[C@@H]4CC=C5C[C@@H](OC(=O)CCCCC[P+](c6ccccc6)(c6ccccc6)c6ccccc6)CC[C@]5(C)[C@H]4CC[C@]3(C)[C@H]1[C@@H]2C (some centres not stated) | 1.24 | 5.49 | 4.19 | 
CC1CC[C@@]2(OC1)O[C@H]1C[C@H]3[C@@H]4CC[C@@H]5C[C@@H](OC(=O)CCC[P+](c6ccccc6)(c6ccccc6)c6ccccc6)CC[C@]5(C)[C@H]4CC[C@]3(C)[C@H]1[C@@H]2C (some centres not stated) | 1 | 3.62 | 3.44 | 
CC[N+]1(CCCC(=O)OC[C@H](C)CC[C@H]2O[C@H]3C[C@H]4[C@@H]5CC=C6C[C@@H](OC(C)=O)CC[C@]6(C)[C@H]5CC[C@]4(C)[C@H]3[C@@H]2C)CCOCC1 | 17.4 | > 50 | > 50 | 
CC[N+]1(CCCC(=O)OC[C@H](C)CC[C@H]2O[C@H]3C[C@H]4[C@@H]5CC=C6C[C@@H](OC(C)=O)CC[C@]6(C)[C@H]5CC[C@]4(C)[C@H]3[C@@H]2C)CCc2ccccc2C1 (some centres not stated) | 14.4 | 34.8 | 33.5 | 
CC[N+]1(CCCC(=O)O[C@H]2CC[C@@]3(C)C(=CC[C@H]4[C@@H]5C[C@@H]6O[C@]7(CCC(C)CO7)[C@@H](C)[C@@H]6[C@@]5(C)CC[C@@H]43)C2)CCCCC1 (some centres not stated) | 15.4 | 40.5 | 19.2 | 
C[C@@H]1CC[C@@]2(OC1)O[C@H]1C[C@H]3[C@@H]4CC=C5C[C@@H](O)CC[C@]5(C)[C@H]4CC[C@]3(C)[C@H]1[C@@H]2C [DISOGENIN] |  | > 50 | > 50 | 
CC[N+]1(CCCC(=O)O[C@H]2CC[C@@]3(C)[C@H](CC[C@@H]4[C@@H]3CC[C@]3(C)[C@@H]5[C@H](C[C@@H]43)O[C@]3(CCC(C)CO3)[C@H]5C)C2)CCCC1 (some centres not stated) | 15.4 | 16.2 | 9.08 | 
CC1CC[C@@]2(OC1)O[C@H]1C[C@H]3[C@@H]4CC[C@@H]5C[C@@H](OC(=O)C[P+](c6ccccc6)(c6ccccc6)c6ccccc6)CC[C@]5(C)[C@H]4CC[C@]3(C)[C@H]1[C@@H]2C (some centres not stated) | 5.23 | 42.9 | 22.6 | 
CC[N+]1(CCCC(=O)OC[C@H](C)CC[C@H]2O[C@H]3C[C@H]4[C@@H]5CC=C6C[C@@H](OC(C)=O)CC[C@]6(C)[C@H]5CC[C@]4(C)[C@H]3[C@@H]2C)CCNCC1 | 13.7 | 36.4 | 34.6 | 
CC[N+]1(CCCC(=O)O[C@H]2CC[C@@]3(C)[C@H](CC[C@@H]4[C@@H]3CC[C@]3(C)[C@@H]5[C@H](C[C@@H]43)O[C@]3(CCC(C)CO3)[C@H]5C)C2)CCCCC1 (some centres not stated) | 14.6 | 37.8 | 19.9 | 
